Measurements taken from patent US20240246920A1, “TRIAZOLE DERIVATIVES WITH ANTIFUNGAL ACTIVITY” (King's College London, priority 2020, published 2024).
Converted amounts (≈) assume the structure as drawn.

How the values were obtained:
C. parapsilosis NCPF3209 = assay: microbe, parasite or virus in culture; type: cell-based, Candida parapsilosis; details: Lodderomyces parapsilosis, NCPF3209; Table 4, common panel; 24 hours, ≥50% inhibition; read-out: MIC C. parapsilosis NCPF3209
Protocol: (§1) The minimum inhibitory concentration of test compounds were determined in a panel of Candida species (see Table 4 below), using the a serial dilution method in 96-well plates using the following protocol.
(§2) Starter cultures of fungal strains to be tested were grown in 3 mL of RPMI 2% glucose media incubated at 37° C. with shaking at 200 rpm overnight. The culture media used was 900 mL H2O; 10.4 g RPMI 1640 (with L-glutamine and a pH indicator but without bicarbonate); 34.5 g MOPS and 18 g glucose. The pH of the media was adjusted to 7.0 with 1 M sodium hydroxide.
(§3) Solutions of the compound to be tested were prepared by dissolving the compound in DMSO and subsequently into media to the desired concentrations. […] The last two rows of each plate were control rows containing the culture media alone and the media plus fungi.
(§4) The fungi starter cultures were diluted 1:10 in water in cuvettes. This was then further diluted to an optical density (OD600) of 0.01 in media. 100 μL of the fungi was added to each well giving a starting concentration of fungus of 0.5-5×10^5/mL. One species of fungus was used on each plate. The plates were then held at 37° C. for 24 hours.
(§5) A plate reader was used to measure growth in each well at OD530 nm and the MIC was determined for each test compound. The MIC is defined as the lowest concentration giving rise to inhibition of ≥50% of that of the drug-free control well containing the fungus and media.

C. auris 8971 = assay: Candida panel MIC, serial dilution in 96-well plates; type: cell-based, Candida auris; details: Candidozyma auris, 8971; Table 4, extended panel; 24 hours, ≥50% inhibition; read-out: MIC C. auris 8971
Protocol: as §1, §2, §3, §4, §5
(§6) The Candida auris strains shown in Table 7 were either taken from the National Collection of Pathogenic Fungi (NCPF) or collected as part of ongoing surveillance studies. The strains were characterised as follows.

C. auris 8984 = assay: as above; type: cell-based, Candida auris; details: Candidozyma auris, 8984; Table 4, extended panel; 24 hours, ≥50% inhibition; read-out: MIC C. auris 8984
Protocol: as §1, §2, §3, §4, §5, §6

C. auris 8977 = assay: as above; type: cell-based, Candida auris; details: Candidozyma auris, 8977; Table 4, extended panel; 24 hours, ≥50% inhibition; read-out: MIC C. auris 8977
Protocol: as §1, §2, §3, §4, §5, §6

C. glabrata NCPF8018 = assay: as above; type: cell-based, Candida glabrata; details: Nakaseomyces glabratus, NCPF8018; Table 4, common panel; 24 hours, ≥50% inhibition; read-out: MIC C. glabrata NCPF8018
Protocol: as §1, §2, §3, §4, §5

Candida auris TDG2506 = assay: microbe, parasite or virus in culture; type: cell-based; details: Candidozyma auris, TDG2506; Table 4, extended panel; 24 hours, ≥50% inhibition; read-out: MIC Candida auris TDG2506
Protocol: as §1, §2, §3, §4, §5, §6

Candida auris TDG2211 = assay: microbe, parasite or virus in culture; type: cell-based; details: Candidozyma auris, TDG2211; Table 4, extended panel; 24 hours, ≥50% inhibition; read-out: MIC Candida auris TDG2211
Protocol: as §1, §2, §3, §4, §5, §6

C. albicans NCPF3281 = assay: Candida panel MIC, serial dilution in 96-well plates; type: cell-based, Candida albicans; details: Candida albicans, NCPF3281; Table 4, common panel; 24 hours, ≥50% inhibition; read-out: MIC C. albicans NCPF3281
Protocol: as §1, §2
(§7) Solutions of the compound to be tested were prepared by dissolving the compound in DMSO and subsequently into media to the desired concentrations. 200 μL of compound solution was then added to the wells of the 96-well plate using a serial dilution method row-by row of the plate to give a compound concentration gradient across the plate of from 128 μg/mL to 0.25 μg/mL. The last two rows of each plate were control rows containing the culture media alone and the media plus fungi.
as §4, §5

C. auris TDG1912 = assay: as above; type: cell-based; details: Candidozyma auris, TDG1912; Table 4; 24 hours, ≥50% inhibition; read-out: MIC C. auris TDG1912
Protocol: as §1, §2, §7, §4, §5

C. tropicalis NCPF8760 = assay: as above; type: cell-based; details: NCPF8760, Table 4, common panel, 24 hours, ≥50% inhibition, read-out: MIC C. tropicalis NCPF8760
Protocol: as §1, §2, §7, §4, §5

Candida auris TDG1102 = assay: as above; type: cell-based; details: Candidozyma auris, TDG1102; Table 4, extended panel; 24 hours, ≥50% inhibition; read-out: MIC Candida auris TDG1102
Protocol: as §1, §2, §7, §4, §5

Candida auris TDG2512 = assay: as above; type: cell-based; details: Candidozyma auris, TDG2512; Table 4, extended panel; 24 hours, ≥50% inhibition; read-out: MIC Candida auris TDG2512
Protocol: as §1, §2, §7, §4, §5

C. krusei NCPF3876 = assay: microbe, parasite or virus in culture; type: cell-based, Candida krusei; details: Pichia kudriavzevii, NCPF3876; Table 4, common panel; 24 hours, ≥50% inhibition; read-out: MIC C. krusei NCPF3876
Protocol: as §1, §2, §3, §4, §5

SMILES	MIC (C. parapsilosis NCPF3209) [µg/mL]	MIC (C. auris 8971) [µg/mL]	MIC (C. auris 8984) [µg/mL]	MIC (C. auris 8977) [µg/mL]	MIC (C. glabrata NCPF8018) [µg/mL]	MIC (Candida auris TDG2506) [µg/mL]	MIC (Candida auris TDG2211) [µg/mL]	MIC (C. albicans NCPF3281) [µg/mL]	MIC (C. auris TDG1912) [µg/mL]	MIC (C. tropicalis NCPF8760) [µg/mL]	MIC (Candida auris TDG1102) [µg/mL]	MIC (Candida auris TDG2512) [µg/mL]	MIC (C. krusei NCPF3876) [µg/mL]
OC(CN1CCC(N2CCC(Nc3ncc(F)cn3)CC2)CC1)(Cn1cncn1)c1ccc(F)cc1F (stereo not drawn) [Example 10, 2-(2,4-Difluorophenyl)-1-(4-((5-fluoropyrimidin-2-yl)amino)-[1,4′-bipiperidin]-1′-yl)-3-(1H-1,2,4-triazol-1-yl)propan-2-ol]	0.125 (≈ 0.242 µM)	0.5 (≈ 0.968 µM)	0.5 (≈ 0.968 µM)	1 (≈ 1.94 µM)	64 (≈ 124 µM)	8 (≈ 15.5 µM)	64 (≈ 124 µM)	0.015 (≈ 0.029 µM)	4 (≈ 7.74 µM)	64 (≈ 124 µM)	4 (≈ 7.74 µM)	0.5 (≈ 0.968 µM)	32 (≈ 61.9 µM)
OC(CN1CCC(N2CCC(Nc3ccccc3)CC2)CC1)(Cn1cncn1)c1ccc(F)cc1F (stereo not drawn) [Example 14, 2-(2,4-difluorophenyl)-1-(4-(phenylamino)-[1,4′-bipiperidin]-1′-yl)-3-(1H-1,2,4-triazol-1-yl)propan-2-ol]	≤ 0.125	0.25 (≈ 0.503 µM)	1 (≈ 2.01 µM)	0.25 (≈ 0.503 µM)	16 (≈ 32.2 µM)	2 (≈ 4.03 µM)	≤ 0.125	≤ 0.125	1 (≈ 2.01 µM)	32 (≈ 64.4 µM)	1 (≈ 2.01 µM)	0.25 (≈ 0.503 µM)	4 (≈ 8.05 µM)
OC(CN1CC2CN(c3ncc(F)cn3)CC2C1)(Cn1cncn1)c1ccc(F)cc1F (stereo not drawn) [Example 15, 2-(2,4-difluorophenyl)-1-(5-(5-fluoropyrimidin-2-yl)hexahydropyrrolo[3,4-c]pyrrol-2(1H)-yl)-3-(1H-1,2,4-triazol-1-yl)propan-2-ol]	0.125 (≈ 0.281 µM)	0.5 (≈ 1.12 µM)	32 (≈ 71.8 µM)	1 (≈ 2.24 µM)	1 (≈ 2.24 µM)	> 128	4 (≈ 8.98 µM)	0.12 (≈ 0.269 µM)	8 (≈ 18 µM)	8 (≈ 18 µM)	8 (≈ 18 µM)	4 (≈ 8.98 µM)	4 (≈ 8.98 µM)
OC(CN1C[C@H]2CC(Nc3ccc(Cc4ccccc4)cc3)C[C@H]2C1)(Cn1cncn1)c1ccc(F)cc1F (stereo partly drawn) [Example 16, 1-((3aR,6aS)-5-((4-benzylphenyl)amino)hexahydrocyclopenta[c]pyrrol-2(1H)-yl)-2-(2,4-difluorophenyl)-3-(1H-1,2,4-triazol-1-yl)propan-2-ol]	≤ 0.125	≤ 0.125	1 (≈ 1.89 µM)	≤ 0.125	≤ 0.125	0.5 (≈ 0.944 µM)	≤ 0.125	≤ 0.125	1 (≈ 1.89 µM)	1 (≈ 1.89 µM)	1 (≈ 1.89 µM)	≤ 0.125	≤ 0.125
OC(CN1CCC(Nc2ccc(Cc3ccc(F)cc3)cc2)CC1)(Cn1cncn1)c1ccc(F)cc1F (stereo not drawn) [Example 30, 2-(2,4-difluorophenyl)-1-(4-((4-(4-fluorobenzyl)phenyl)amino)piperidin-1-yl)-3-(1H-1,2,4-triazol-1-yl)propan-2-ol]	≤ 0.125	≤ 0.125	≤ 0.125	≤ 0.125	≤ 0.125	≤ 0.125	≤ 0.125	≤ 0.125	≤ 0.125	≤ 0.125	≤ 0.125	≤ 0.125	≤ 0.125
OC(CN1CCC(Nc2ccc(OCc3ccncc3)cc2)CC1)(Cn1cncn1)c1ccc(F)cc1F (stereo not drawn) [Example 81]	0.00781 (≈ 0.015 µM)	0.0156 (≈ 0.03 µM)	0.125 (≈ 0.24 µM)	0.0156 (≈ 0.03 µM)	2 (≈ 3.84 µM)	0.125 (≈ 0.24 µM)	0.0313 (≈ 0.0601 µM)	0.00781 (≈ 0.015 µM)	0.0313 (≈ 0.0601 µM)	0.5 (≈ 0.96 µM)	0.0625 (≈ 0.12 µM)	0.00781 (≈ 0.015 µM)	0.125 (≈ 0.24 µM)
